Data from BindingDB's records for patent US11161844 (PFIZER INC., 2021).

Columns and labels:
[1] = molecular target: Leucine-rich repeat serine/threonine-protein kinase 2 (Homo sapiens, UniProt Q5S007); assay: LRRK2 Assay
Description: (§1) LRRK2 kinase activity was measured using Lantha Screen technology from Invitrogen. GST-tagged truncated LRRK2 from Invitrogen (Cat #PV4874) was incubated with a fluorescein-labeled peptide substrate based upon ezrin/radixin/moesin (ERM), also known as LRRKtide (Invitrogen cat #PR8976A), in the presence of a dose response of compound. Upon completion, the assay was stopped and detected with a terbium labeled anti-phospho-ERM antibody (Invitrogen, cat #PR8975A). The assay was carried out under the following protocol: The compound dose response was prepared by diluting compound to a top concentration of 0.3 mM in 100% DMSO and serial diluted by half-log in DMSO to give an 11 point curve, 100× final assay concentration. Using Echo acoustic dispensing, 60 nL of compound was transferred to a low volume Corning 384-well assay plate. 3 μL of a working solution of substrate (200 nM LRRKtide, 2 mM ATP) prepared in assay buffer (50 mM HEPES, pH 7.5, 3 mM MgCl2, with 2 mM DTT and 0.01% Brij35 added fresh) was added to the 60 nL compound assay plate. The kinase reaction was started with 3 μL of a working solution of LRRK2 enzyme at a concentration of 4 μg/mL. The final reaction concentrations were 100 nM LRRKtide, 1 mM ATP, 2 μg/mL LRRK2 enzyme and a compound dose response with a top dose of 3 μM. The reaction was allowed to progress at room temperature for 30 minutes and then stopped with the addition of 6 μL of detection buffer (20 mM Tris pH 7.6, 0.01% NP-40, 6 mM EDTA with 2 nM terbium labeled anti-phospho-ERM). After an incubation of 1 hour at room temperature, the plate was read on an Envision with an excitation wavelength of 340 nm and a reading emission at both 520 nm and 495 nm. The ratio of the 520 nm and 495 nm emission was used to analyze the data. Inhibition of mutant G2019S LRRK2 (Invitrogen cat #PV4881) was measured in the exact same method. All final concentrations of substrate ATP and enzyme were the same.

[2] = molecular target: Leucine-rich repeat serine/threonine-protein kinase 2 [G2019S] (Homo sapiens, UniProt Q5S007, G2019S); assay: LRRK2 Assay
Chain of Leucine-rich repeat serine/threonine-protein kinase 2 [G2019S] (Q5S007 whole entry G2019S): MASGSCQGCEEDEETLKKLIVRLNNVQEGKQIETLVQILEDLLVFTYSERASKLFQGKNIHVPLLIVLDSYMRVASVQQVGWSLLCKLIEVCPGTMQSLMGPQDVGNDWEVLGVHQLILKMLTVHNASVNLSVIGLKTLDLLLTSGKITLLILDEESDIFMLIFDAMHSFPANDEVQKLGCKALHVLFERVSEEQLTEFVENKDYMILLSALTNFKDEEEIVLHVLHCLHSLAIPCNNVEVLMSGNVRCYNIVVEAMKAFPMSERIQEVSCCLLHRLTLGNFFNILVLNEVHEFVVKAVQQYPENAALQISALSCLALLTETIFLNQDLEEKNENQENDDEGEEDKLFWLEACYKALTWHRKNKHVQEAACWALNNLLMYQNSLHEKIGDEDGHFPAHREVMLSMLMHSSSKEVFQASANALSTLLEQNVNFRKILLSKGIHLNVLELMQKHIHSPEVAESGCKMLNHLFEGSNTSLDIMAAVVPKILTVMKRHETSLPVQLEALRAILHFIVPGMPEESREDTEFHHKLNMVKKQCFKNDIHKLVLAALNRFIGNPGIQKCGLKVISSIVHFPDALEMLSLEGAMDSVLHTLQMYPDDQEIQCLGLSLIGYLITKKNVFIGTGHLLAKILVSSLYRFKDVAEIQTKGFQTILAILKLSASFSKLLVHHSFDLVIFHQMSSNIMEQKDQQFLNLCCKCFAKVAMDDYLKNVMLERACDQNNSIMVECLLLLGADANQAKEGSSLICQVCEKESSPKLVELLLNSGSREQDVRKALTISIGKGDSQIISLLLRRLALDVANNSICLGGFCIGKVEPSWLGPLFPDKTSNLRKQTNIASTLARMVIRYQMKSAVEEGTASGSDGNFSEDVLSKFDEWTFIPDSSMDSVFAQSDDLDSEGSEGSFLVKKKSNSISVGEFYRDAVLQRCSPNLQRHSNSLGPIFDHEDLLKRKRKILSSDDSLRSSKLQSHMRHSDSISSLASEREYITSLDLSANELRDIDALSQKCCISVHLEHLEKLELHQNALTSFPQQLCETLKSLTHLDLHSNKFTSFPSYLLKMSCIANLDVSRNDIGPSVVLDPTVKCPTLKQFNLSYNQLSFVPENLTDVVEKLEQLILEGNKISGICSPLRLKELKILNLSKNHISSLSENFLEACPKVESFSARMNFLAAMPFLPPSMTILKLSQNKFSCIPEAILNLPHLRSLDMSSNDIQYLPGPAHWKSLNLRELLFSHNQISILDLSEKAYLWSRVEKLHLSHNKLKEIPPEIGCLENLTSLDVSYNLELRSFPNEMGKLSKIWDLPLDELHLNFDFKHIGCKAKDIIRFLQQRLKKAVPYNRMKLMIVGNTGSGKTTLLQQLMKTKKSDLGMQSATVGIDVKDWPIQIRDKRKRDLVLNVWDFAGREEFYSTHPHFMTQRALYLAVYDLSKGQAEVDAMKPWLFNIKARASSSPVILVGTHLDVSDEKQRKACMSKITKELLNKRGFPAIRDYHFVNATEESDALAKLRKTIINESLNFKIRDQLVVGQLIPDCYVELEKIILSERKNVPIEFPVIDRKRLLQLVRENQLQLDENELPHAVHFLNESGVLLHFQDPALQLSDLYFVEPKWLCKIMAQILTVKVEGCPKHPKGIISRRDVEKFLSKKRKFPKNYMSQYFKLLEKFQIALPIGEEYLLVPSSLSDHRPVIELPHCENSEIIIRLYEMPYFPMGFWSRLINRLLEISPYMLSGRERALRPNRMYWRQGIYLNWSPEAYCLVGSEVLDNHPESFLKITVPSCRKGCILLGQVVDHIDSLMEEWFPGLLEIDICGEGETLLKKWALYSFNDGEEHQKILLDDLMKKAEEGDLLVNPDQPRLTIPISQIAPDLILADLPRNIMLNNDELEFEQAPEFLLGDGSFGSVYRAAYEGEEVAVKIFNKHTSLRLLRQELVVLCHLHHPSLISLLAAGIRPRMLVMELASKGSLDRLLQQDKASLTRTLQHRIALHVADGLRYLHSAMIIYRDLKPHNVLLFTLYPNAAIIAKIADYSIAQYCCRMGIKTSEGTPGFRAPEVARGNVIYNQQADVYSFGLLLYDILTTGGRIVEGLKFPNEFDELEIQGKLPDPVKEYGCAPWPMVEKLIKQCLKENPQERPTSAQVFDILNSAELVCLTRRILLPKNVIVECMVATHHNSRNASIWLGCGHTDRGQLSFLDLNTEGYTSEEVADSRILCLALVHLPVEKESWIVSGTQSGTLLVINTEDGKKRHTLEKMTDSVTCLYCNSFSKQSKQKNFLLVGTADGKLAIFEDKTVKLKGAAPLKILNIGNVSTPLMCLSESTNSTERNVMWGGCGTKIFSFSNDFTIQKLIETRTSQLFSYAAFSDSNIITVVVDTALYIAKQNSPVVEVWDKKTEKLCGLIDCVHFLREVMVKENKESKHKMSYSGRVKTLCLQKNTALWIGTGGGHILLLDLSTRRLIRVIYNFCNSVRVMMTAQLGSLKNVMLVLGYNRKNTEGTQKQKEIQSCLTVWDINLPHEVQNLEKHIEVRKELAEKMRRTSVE
Description: as §1

Chain of Leucine-rich repeat serine/threonine-protein kinase 2 (Q5S007 whole entry, the tested form may be a part): as the sequence (Q5S007 whole entry G2019S) above, with S2019G counted along it

Row | SMILES | IC50 [1] | IC50 [2]
1 | C[C@@H]1C[C@H](n2c(C3CCC(F)C3)nc3cnc4ccc(F)cc4c32)CCO1 (single isomer, unassigned) [US11161844, Example 37] | 5.68 nM | 
2 | C[C@@H]1CC(n2c(C3CC(C)(F)C3)nc3cnc4ccc(F)cc4c32)CCO1 (stereo partly drawn) [US11161844, Example 31] | 22 nM | 15.8 nM
